Reference: paper PMC4467461, “Small-molecule activation of SERCA2a SUMOylation for the treatment of heart failure” (Nature Communications, 2015)

Target: T1, SUMO E1 SAE1 Q312A mutant (Homo sapiens, UniProt Q9UBE0+Q9UBT2, Q312A)
T1 construct: GST (N); made in house; host or cells: Escherichia coli BL21
T1 sequence (Q9UBE0 1-346 Q312A): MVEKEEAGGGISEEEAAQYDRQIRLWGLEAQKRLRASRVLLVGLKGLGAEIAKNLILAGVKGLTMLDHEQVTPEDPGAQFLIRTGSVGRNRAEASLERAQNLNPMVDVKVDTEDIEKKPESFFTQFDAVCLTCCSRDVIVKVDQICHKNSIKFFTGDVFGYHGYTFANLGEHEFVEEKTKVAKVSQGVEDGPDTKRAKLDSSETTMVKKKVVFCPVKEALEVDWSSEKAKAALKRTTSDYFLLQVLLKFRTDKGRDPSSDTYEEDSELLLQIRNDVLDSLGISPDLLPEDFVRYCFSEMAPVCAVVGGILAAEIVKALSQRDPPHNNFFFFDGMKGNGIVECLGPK
T1 sequence (Q9UBT2 1-640): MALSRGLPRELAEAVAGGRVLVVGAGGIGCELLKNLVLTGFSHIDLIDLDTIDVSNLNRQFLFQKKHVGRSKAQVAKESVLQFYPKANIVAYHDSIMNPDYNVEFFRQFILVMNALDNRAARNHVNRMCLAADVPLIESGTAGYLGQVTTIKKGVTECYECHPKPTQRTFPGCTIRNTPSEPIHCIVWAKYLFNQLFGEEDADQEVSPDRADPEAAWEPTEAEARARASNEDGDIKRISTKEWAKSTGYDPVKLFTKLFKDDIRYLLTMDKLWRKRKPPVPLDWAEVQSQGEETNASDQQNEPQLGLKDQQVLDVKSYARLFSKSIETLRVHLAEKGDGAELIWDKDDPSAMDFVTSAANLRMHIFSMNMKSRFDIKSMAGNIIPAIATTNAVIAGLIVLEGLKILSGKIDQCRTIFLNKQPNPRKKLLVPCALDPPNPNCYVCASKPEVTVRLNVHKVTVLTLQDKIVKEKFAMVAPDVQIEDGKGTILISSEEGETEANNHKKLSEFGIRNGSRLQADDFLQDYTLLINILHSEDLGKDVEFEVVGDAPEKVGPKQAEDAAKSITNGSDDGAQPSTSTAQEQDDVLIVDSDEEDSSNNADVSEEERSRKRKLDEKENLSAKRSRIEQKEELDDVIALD
Assay: SUMO E1 activity assays with SAE1 Q312A mutant
Assay type: biochemical
Procedure: Figure 3 SUMO-specific activating enzyme, E1, is a direct target of N106. Mechanism of action of N106 on individual steps in the SUMOylation cascade in vitro. (a) Inorganic pyrophosphate resulting from ATP hydrolysis in E1-catalysed SUMO-1 activation in the presence of increasing concentration of N106 compound was assessed by fluorogenic pyrophosphate assay kit. Recombinant human SUMO-specific E1 (0.05 μM), human Ubc9 (0.25 μM), human SUMO-1 (12.5 μM) and ATP (1 mM) were incubated with increasing concentration of N106 for 30 min at 37 °C and quantified using a fluorescence microplate reader. (b) The SAE2-SUMO-1 conjugation was detected followed by western blotting with anti-SAE2 antibodies. SUMO E1 (0.05 μM), SUMO-1 (12.5 μM) and ATP (1 mM) were co-incubated with increasing concentration of N106 for 30 min at 37 °C. The reaction mixtures were separated on 7.5% SDS–PAGE gel under non-reducing conditions. (c) E2-SUMO-1 conjugation was visualized by western blotting with anti-Ubc9 antibody. SUMO E1 (0.05 μM), Ubc9 (0.25 μM), SUMO-1 (12.5 μM) and ATP (1 mM) were incubated without or with increasing concentration of N106 for 30 min at 37 °C. […] (e) ATP hydrolytic activity of WT and mutant SUMO E1 are determined. (f) The E1-SUMO-1 conjugation was detected followed by western blot analysis with anti-SAE2 antibody. *The SAE2-SUMO-1 conjugated bands. […]

ATP hydrolysis activity with N106, compared with wild-type protein (Q312A mutant): significantly lower
SUMO E1-SUMO and SUMO E2-SUMO conjugations in the presence of N106, compared with WT (Q312A mutant SAE1): weaker
Compound: COc1ccc(-c2nnc(Nc3nc4c(OC)cccc4s3)o2)cc1 [Compound N106, N-(4-methoxybenzo[d]thiazol-2-yl)-5-(4-methoxyphenyl)-1,3,4-oxadiazol-2-amine]
